From article PMC6150229, “Simultaneous Determination of Twenty-Five Compounds in Rat Plasma Using Ultra-High Performance Liquid Chromatography-Polarity Switching Tandem Mass Spectrometry and Its Application to a Pharmacokinetic Study” (Molecules : A Journal of Synthetic Chemistry and Natural …, 2017)

What was measured:
[1] = Pharmacokinetic study in sham and myocardial ischemia model rats after a single oral dose of QSKL (UHPLC-psMS/MS of plasma, non-compartmental analysis); conditions: for AUC(0-inf): AUC0–∞
Description: (§1) Twelve male Spargue-Dawley rats (200 ± 20 g) were supplied by Vital River Laboratory Animal Technology Co. Ltd. (Beijing, China). […] The rats were acclimated under a humidity (50%) controlled room at 22–25 °C with a 12 h light-dark cycle, and standard diet and water were provided ad libitum for one week.
(§2) Afterwards, all rats were randomly divided into two groups, namely sham and model groups. The myocardial ischemia model was simulated by left anterior descending (LAD) coronary artery ligation [12], whilst the rats belonging to the sham group received the similar surgery, however no actual ligation in LAD. All animals were fasted overnight with free access to water prior to oral dosing. Aliquots (250 μL) of blood were sampled at 0 (pre-dose), 0.08, 0.25, 0.5, 0.75, 1, 1.5, 2, 4, 6, 8, 12, and 24 h from venous around eye socket into heparinized tubes after a single oral dosing of 8.0 g/kg of QSKL and the collected blood samples were immediately subjected for 4000 rpm centrifugation for 10 min at 4 °C to harvest the plasma samples. Each 100 μL aliquot of plasma sample was transferred into another Eppendorf tube and stored at −80 °C till use.
(§3) When analysis, 300 μL of internal standards (200 ng/mL for either internal standard) fortified ACN, corresponding to three volumes of plasma, was spiked into each thawed plasma sample and mixed thoroughly. Then, the resulting samples were processed as those calibration samples.
(§4) Individual animal plasma concentrations versus time dataset were subjected to a non-compartmental pharmacokinetic analysis using WinNonlin software (ver. 6.4, Pharsight Corp., Sunnyvale, CA, USA). The pharmacokinetic parameters of each analyte including the maximum plasma concentration (Cmax), the time at which Cmax was achieved (Tmax), the terminal elimination half-life (t1/2), and the area under the plasma concentration versus time curve (AUC0→t along with AUC0→∞) were calculated. Moreover, Lz corresponding to the ratio of the dosage and AUC0→∞, as well as mean residence time (MRT) that was defined as the ratio of the area under the first moment curve from time 0 to infinity (AUMC0→∞/AUC0→∞) was also calculated. All results are expressed as mean ± SD. Comparisons regarding the pharmacokinetic parameters were carried out between sham and model groups using Student’s t-test, and p values less than 0.05 were considered to be significant.

in vivo = conditions: male, Sprague-Dawley, rat, po, 8 g/kg, oral administration of QSKL, plasma, mean ± SD, n = 6; for AUC(0-t): AUC0–t; for AUC(0-inf): AUC0–∞
Description: as §1, §2, §3, §4

[2] = QSKL-treated plasma samples, sham and model rats, single oral dose 8.0 g/kg
[3] = male, Sprague-Dawley, rat, plasma, po, 8 g/kg, AUC0–t, model group (MG, myocardial ischemia) rats, oral administration of QSKL, plasma, mean ± SD, n = 6
[4] = male, Sprague-Dawley, rat, plasma, po, 8 g/kg, AUC0–t, sham group (SG) rats, oral administration of QSKL, plasma, mean ± SD, n = 6
[5] = male, Sprague-Dawley, rat, plasma, po, 8 g/kg, model group (MG, myocardial ischemia) rats, oral administration of QSKL, plasma, mean ± SD, n = 6
[6] = male, Sprague-Dawley, rat, plasma, po, 8 g/kg, sham group (SG) rats, oral administration of QSKL, plasma, mean ± SD, n = 6
[7] = male, Sprague-Dawley, rat, plasma, po, 8 g/kg, Cmax, model group (MG, myocardial ischemia) rats, oral administration of QSKL, plasma, mean ± SD, n = 6
[8] = male, Sprague-Dawley, rat, plasma, po, 8 g/kg, Cmax, sham group (SG) rats, oral administration of QSKL, plasma, mean ± SD, n = 6
[9] = male, Sprague-Dawley, rat, plasma, po, 8 g/kg, t1/2, model group (MG, myocardial ischemia) rats, oral administration of QSKL, plasma, mean ± SD, n = 6
[10] = male, Sprague-Dawley, rat, plasma, po, 8 g/kg, t1/2, sham group (SG) rats, oral administration of QSKL, plasma, mean ± SD, n = 6
[11] = male, Sprague-Dawley, rat, plasma, po, 8 g/kg, AUC0→t, model (myocardial ischemia, LAD ligation) rats, single oral dose of 8.0 g/kg QSKL, mean ± SD, n = 6
[12] = male, Sprague-Dawley, rat, plasma, po, 8 g/kg, AUC0→t, sham rats, single oral dose of 8.0 g/kg QSKL, mean ± SD, n = 6
[13] = male, Sprague-Dawley, rat, plasma, po, 8 g/kg, rats, after oral dosing QSKL 8.0 g/kg
[14] = rats, after oral dosing QSKL 8.0 g/kg
[15] = model group (MG, myocardial ischemia) rats
[16] = t1/2, model group (MG, myocardial ischemia) rats

AUC(0-t) [1, 3] [ng·h/mL] | AUC(0-t) [1, 4] [ng·h/mL] | AUC(0-inf) [1, 5] [ng·h/mL] | AUC(0-inf) [1, 6] [ng·h/mL] | Cmax [1, 7] [ng/mL] | Cmax [1, 8] [ng/mL] | MRT [1, 5] [h] | MRT [1, 6] [h] | Tmax [1, 5] [h] | Tmax [1, 6] [h] | half-life [1, 9] [h] | half-life [1, 10] [h] | Compound | distribution in rat plasma (quantifiable or not) [1, 2] | also measured
1.2 ± 0.482 | 0.966 ± 0.351 | 1.32 ± 0.472 | 1.22 ± 0.609 | 0.47 ± 0.291 | 0.243 ± 0.127 | 5.47 ± 2.56 | 7 ± 2.97 | 0.51 ± 0.46 | 0.61 ± 0.53 | 3.81 ± 1.89 | 4.7 ± 2.32 | COc1ccc(-c2coc3cc(O)ccc3c2=O)cc1 [formononetin] | quantifiable in most samples | –
4.28 ± 0.678 | 3.18 ± 0.664 | 7.17 ± 3.08 | 4.77 ± 1.45 | 0.349 ± 0.089 | 0.376 ± 0.15 | 26.4 ± 14.9 | 20.9 ± 5.14 | 8.71 ± 8.03 | 0.67 ± 0.3 | 18 ± 10.8 | 13.8 ± 4.05 | Cc1coc2c1C(=O)C(=O)c1c-2ccc2c1CCCC2(C)C [tanshinone IIA] | quantifiable in most samples | AUC(0-t) [1, 11]: 4.28 ± 0.678 ng·h/mL; AUC(0-t) [1, 12]: 3.18 ± 0.664 ng·h/mL; Tmax [1, 13]: 8 h
1.56 ± 0.668 | 1.87 ± 1.21 | 1.71 ± 0.74 | 2.07 ± 1.31 | 0.401 ± 0.103 | 0.389 ± 0.137 | 8.14 ± 2.95 | 7.85 ± 0.6 | 0.37 ± 0.28 | 0.15 ± 0.13 | 4.69 ± 2.06 | 4.37 ± 1.37 | O=C(/C=C/c1ccc(O)cc1)c1ccc(O)cc1O [isoliquiritigenin] | – | shape of plasma concentration-time profile [1, 14]: Multiple-peak profiles
2.4 ± 2.04 | – | 2.2 ± 1.77 | – | 1.02 ± 0.692 | – | 18.7 ± 16.7 | – | 0.56 ± 0.38 | – | 16.1 ± 11.3 | – | C[C@]1(OC(=O)/C=C/c2ccccc2)C[C@@H](O)[C@]2(O)C=CO[C@@H](O[C@@H]3O[C@H](CO)[C@@H](O)[C@H](O)[C@H]3O)[C@@H]21 [harpagoside] | – | Cmax ([1]; male, Sprague-Dawley, rat, plasma, po, 8 g/kg, Cmax, model (myocardial ischemia, LAD ligation) rats, single oral dose of 8.0 g/kg QSKL, mean ± SD, n = 6): 1.02 ± 0.692 ng/mL; distribution in rat plasma (quantifiable or not) ([1]; plasma of the model group, single oral dose 8.0 g/kg QSKL): always quantifiable; distribution in rat plasma (quantifiable or not) ([1]; samples from the sham group, single oral dose 8.0 g/kg QSKL): lower than its LOQ
72.8 ± 27.8 | 37.9 ± 7.11 | 170 ± 69.1 | 130 ± 69.1 | 8.87 ± 5.97 | 3.34 ± 1.12 | 40.2 ± 21.7 | 63.7 ± 34.4 | – | 1.46 ± 1.35 | 27.8 ± 14.2 | 43.2 ± 25.4 | CC1(C)[C@@H](O[C@H]2O[C@H](C(=O)O)[C@@H](O)[C@H](O)[C@H]2O[C@@H]2O[C@H](C(=O)O)[C@@H](O)[C@H](O)[C@H]2O)CC[C@]2(C)[C@H]3C(=O)C=C4[C@@H]5C[C@@](C)(C(=O)O)CC[C@]5(C)CC[C@@]4(C)[C@]3(C)CC[C@@H]12 [glycyrrhizic acid] | quantifiable in most samples | AUC(0-t) [1, 11]: 72.8 ± 27.8 ng·h/mL; AUC(0-t) [1, 12]: 37.9 ± 7.11 ng·h/mL; shape of plasma concentration-time profile [1, 14]: Multiple-peak profiles
19.5 ± 3.53 | 16.5 ± 3.91 | 29.2 ± 4.1 | 24.9 ± 2.95 | 4.21 ± 3.41 | 2.04 ± 1.07 | 21.1 ± 8.23 | 25.1 ± 13.5 | 0.46 ± 0.25 | 0.37 ± 0.19 | 14.2 ± 5.79 | 15.8 ± 9.38 | COC(=O)C1=CO[C@@H](O[C@@H]2O[C@H](CO)[C@@H](O)[C@H](O)[C@H]2O)[C@@H]2[C@H](C)O[C@@H](O)C[C@H]12 [morroniside] | quantifiable in most samples | –

Second part, the compound before the results:

Compound | AUC(0-t) [1, 3] [ng·h/mL] | AUC(0-t) [1, 4] [ng·h/mL] | AUC(0-inf) [1, 5] [ng·h/mL] | AUC(0-inf) [1, 6] [ng·h/mL] | Cmax [1, 7] [ng/mL] | Cmax [1, 8] [ng/mL] | MRT [1, 5] [h] | MRT [1, 6] [h] | Tmax [1, 5] [h] | Tmax [1, 6] [h] | half-life [1, 9] [h] | half-life [1, 10] [h] | distribution in rat plasma (quantifiable or not) [1, 2] | also measured
COc1ccc(-c2coc3cc(O)ccc3c2=O)cc1O [calycosin] | 0.89 ± 0.284 | 1.03 ± 0.181 | 1.04 ± 0.268 | 3.09 ± 1.95 | 0.347 ± 0.197 | 0.3 ± 0.244 | 15 ± 4.54 | 55.9 ± 34.6 | 0.28 ± 0.24 | 0.33 ± 0.29 | 9.27 ± 3.21 | 38.2 ± 24.5 | quantifiable in most samples | –
CC1(C)[C@@H](O)CC[C@]2(C)[C@H]3C(=O)C=C4[C@@H]5C[C@@](C)(C(=O)O)CC[C@]5(C)CC[C@@]4(C)[C@]3(C)CC[C@@H]12 [glycyrrhetic acid] | 5040 ± 1860 | 3200 ± 298 | 14500 ± 5750 | – | – | 230 ± 57.1 | 41.9 ± 21.5 | – | 13.3 ± 8.55 | 14 ± 4.9 | 26.3 ± 15.6 | – | – | AUC(0-t) [1, 11]: 5040 ± 1860 ng·h/mL; AUC(0-t) [1, 12]: 3200 ± 298 ng·h/mL; Cmax ([1]; male, Sprague-Dawley, rat, plasma, po, 8 g/kg, Cmax, sham rats, single oral dose of 8.0 g/kg QSKL, mean ± SD, n = 6): 230 ± 57.1 ng/mL; Tmax [1, 13]: > 12 h; Cmax ([1]; model (myocardial ischemia, LAD ligation) rats, single oral dose of 8.0 g/kg QSKL, mean ± SD, n = 6): 376 ± 196 ng/mL; Cmax ([1]; model group (MG, myocardial ischemia) rats, oral administration of QSKL, plasma, mean ± SD, n = 6): 376 ± 196 ng/mL; shape of plasma concentration-time profile [1, 14]: Multiple-peak profiles
C[C@@H]1O[C@@H](O[C@@H]2[C@@H](O)[C@H](OCCc3ccc(O)c(O)c3)O[C@H](COC(=O)/C=C/c3ccc(O)c(O)c3)[C@H]2O)[C@H](O)[C@H](O)[C@H]1O [isoacteoside] | – | – | – | – | – | – | – | – | – | – | – | – | unquantifiable in most QSKL-treated samples | –
COC[C@@]12CC[C@H](OC)[C@]34C(C([C@H](OC)[C@H]13)[C@]1(OC(C)=O)[C@H]3[C@@H](OC(=O)c5ccccc5)[C@](O)(C[C@H]34)[C@@H](OC)[C@@H]1O)N(C)C2 [hypaconitine] | – | – | – | – | – | – | – | – | – | – | – | – | quantifiable in most samples | AUC(0-t) (in vivo; [15]): 0.567 ± 0.26 ng·h/mL; AUC(0-t) (in vivo; sham group (SG) rats): 0.824 ± 0.249 ng·h/mL; AUC(0-inf) (in vivo; [15]): 0.552 ± 0.148 ng·h/mL; AUC(0-inf) (in vivo; sham group (SG) rats): 0.967 ± 0.303 ng·h/mL; Cmax (in vivo; [15]): 0.156 ± 0.134 ng/mL; Cmax (in vivo; sham group (SG) rats): 0.101 ± 0.0328 ng/mL; MRT (in vivo; [15]): 11.9 ± 3.73 h; MRT (in vivo; sham group (SG) rats): 11.7 ± 2.83 h; Tmax (in vivo; [15]): 1.54 ± 0.71 h; Tmax (in vivo; sham group (SG) rats): 2.08 ± 1.6 h; half-life (in vivo; [16]): 7.45 ± 1.18 h; half-life (in vivo; t1/2, sham group (SG) rats): 8.67 ± 1.72 h
COCC12CN(C)C3C4C(OC)C1C3(C(OC)CC2O)C1CC2(O)C(OC)C(O)C4(O)C1C2OC(=O)c1ccccc1 (stereo not shown) [benzoylmesaconine] | – | – | – | – | – | – | – | – | – | – | – | – | quantifiable in most samples | AUC(0-t) (in vivo; [15]): 7.34 ± 7.1 ng·h/mL; AUC(0-t) (in vivo; sham group (SG) rats): 5.82 ± 2.93 ng·h/mL; AUC(0-inf) (in vivo; [15]): 11.1 ± 11 ng·h/mL; AUC(0-inf) (in vivo; sham group (SG) rats): 8.3 ± 6.14 ng·h/mL; Cmax (in vivo; [15]): 3.1 ± 2.49 ng/mL; Cmax (in vivo; sham group (SG) rats): 1.15 ± 0.778 ng/mL; MRT (in vivo; [15]): 13.7 ± 6.58 h; MRT (in vivo; sham group (SG) rats): 20.1 ± 10.3 h; Tmax (in vivo; [15]): 0.47 ± 0.33 h; Tmax (in vivo; sham group (SG) rats): 0.42 ± 0.37 h; half-life (in vivo; [16]): 9.77 ± 5.36 h; half-life (in vivo; t1/2, sham group (SG) rats): 13 ± 6.34 h
CCN1C[C@]2(COC)[C@H](O)C[C@H](OC)[C@@]34[C@@H]5C[C@@]6(O)[C@H](OC(=O)c7ccccc7)[C@@H]5[C@@](OC(C)=O)([C@@H]([C@H](OC)[C@H]23)[C@@H]14)[C@@H](O)[C@@H]6OC [aconitine] | – | – | – | – | – | – | – | – | – | – | – | – | unquantifiable in most QSKL-treated samples | –
C=CC(C)(C)c1cc(/C=C/C(=O)c2ccc(O)cc2)c(OC)cc1O [licochalcone A] | – | – | – | – | – | – | – | – | – | – | – | – | unquantifiable in most QSKL-treated samples | –
